Experiments:
[1] = Caco-2 Permeability Assay (bidirectional); type: in vitro ADME; settings: human; for recovery at 120 min, 1 μM / Papp A→B at 120 min, 1 μM / Papp B→A at 120 min, 1 μM: pH 7.4; for efflux ratio at 120 min, 1 µM / Papp A→B at 120 min, 1 μM / Papp B→A at 120 min, 1 μM / permeability class (Low/High absorption potential) at 120 min, 1 µM: Caco-2; for efflux ratio at 120 min, 1 µM: (Papp B→A)/(Papp A→B); for Papp A→B at 120 min, 1 μM: Direction A→B; for Papp A→B at 120 min, 1 μM / Papp B→A at 120 min, 1 μM: unit not given (thresholds in 10^−6 cm/s); for Papp B→A at 120 min, 1 μM: Direction B→A; for permeability class (Low/High absorption potential) at 120 min, 1 µM: read-out: Permeability Classification
Source text: (§1) Caco-2 cells are commonly used in a confluent monolayer on a cell culture insert filter. When cultured in this format and under specific conditions, the cells become differentiated and polarized such that their phenotype, morphologically and functionally resembles the enterocytes lining the small intestine. The cell monolayer provides a physical and biochemical barrier to the passage of small molecules, and is widely used across the pharmaceutical industry as an in vitro model of the human small intestinal mucosa to predict the absorption of orally administered drugs (Hidalgo et al., Gastroenterology, 1989; Artursson, J. Pharm. Sci., 1990). The correlation between the in vitro apparent permeability (P ? app) across Caco-2 monolayers and the in vivo absorption is well established (Artursson et al., Biochem. Biophys. Res. Comm., 1991).
(§2) The present assay was used to determine the bidirectional permeability of the compounds of the invention through Caco-2 cell monolayers. Caco-2 cells were grown in confluent monolayers where the media of both the apical (A) and basolateral (B) sides were at pH 7.4. Compounds were dosed at 1 μM in the presence of 200 μM Lucifer Yellow, on the apical side (A→B) or the basolateral side (B→A) for assessment, in duplicate.
(§3) The absorption potential of compounds were classified as either Low (P-app <1×10^−6 cm/s) or High (P-app >1×10^−6 cm/s).

Caco-2 cell monolayers = assay: Caco-2 Permeability Assay (bidirectional); type: in vitro ADME
Source text: as §1, §2, §3

[2] = biological target: T1, recombinant form of Glutaminase 1 (GAC) (Homo sapiens, UniProt O94925); assay: Recombinant Enzyme Assay (GAC coupled to GDH, NADH absorbance, no preincubation); type: biochemical; settings: no preincubation; read-out: GAC Delta N2 IC50 no preinc
Summary of the method: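 GAC (4 nM) in Tris-HCl pH 8.0 with 150 mM K2HPO4, EDTA, BSA, DTT, plus 4 units/ml GDH and 4 mM ADP, without preincubation. Absorbance at 340 nm was read kinetically for 15 min at 20° C. Slopes (mAU/min) were compared with DMSO-only and control-compound wells on the same plate.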

[3] = biological target: T1, recombinant form of Glutaminase 1 (GAC); assay: Recombinant Enzyme Assay - Time Dependence (60 minutes enzyme/compound preincubation); type: biochemical
Description: The enzyme/compound mix was sealed with sealing foil (USA Scientific) and allowed to incubate, with mild agitation, for 60 minutes at 20° C. Enzymatic reaction was started with the addition of 50 μL of substrate solution (50 mM Tris-HCl pH 8.0, 0.2 mM EDTA, 150 mM K2HPO4, 0.1 mg/ml BSA, 1 mM DTT, 20 mM L-glutamine, 2 mM NAD^+, and 10 ppm antifoam) and read in a Molecular Devices M5 plate reader at 20° C. The plate reader was configured to read absorbance (λ=340 nm) in kinetic mode for 15 minutes. Data was recorded as milli-absorbance units per minute and slopes were compared to a control compound and a DMSO-only control on the same plate. Compounds with slopes less than the DMSO control were considered inhibitors and plate variability was assessed using the control compound.

[4] = read-out: GAC Delta N2 IC50 60 min preinc
[5] = read-out: GAC Delta N2 IC50 60 min

Row | SMILES | recovery at 120 min, 1 μM ([1]; Caco-2, pH 7.4, Direction A→B) [%] | recovery at 120 min, 1 μM ([1]; Caco-2, pH 7.4, Direction B→A) [%] | efflux ratio at 120 min, 1 µM [1] | Papp A→B at 120 min, 1 μM [1] [nm/s] | Papp B→A at 120 min, 1 μM [1] [nm/s] | permeability class (Low/High absorption potential) at 120 min, 1 µM [1] [nm/s] | Significant Efflux (Caco-2 cell monolayers) | IC50 [2] [µM] | IC50 [3, 4] [µM] | IC50 [3, 5] [µM]
1 | O=C(Cc1ccccc1Cl)Nc1ccc(CCCCc2nnc(NC(=O)Cc3ccccc3F)s2)nn1 [Compound 533] | 41 | 52 | 7.6 | 49.4 | 375 | > 10 | Yes (efflux ratios being significant when greater than or equal to 3 when the Papp (B→A) was greater than or equal to 1×10^−6 cm/s) | – | – | –
2 | O=C(Nc1nnc(CCCCc2nnc(NC(=O)C(O)c3cccc(Cl)c3)s2)s1)C(O)c1cccc(Cl)c1 (stereo not shown) [Compound 306] | – | – | – | – | – | – | – | 0.52 | 0.031 | –
3 | O=C(Cc1cccc(OC(F)(F)F)c1)Nc1ccc(CCCCc2nnc(NC(=O)Cc3cccc(F)c3)s2)nn1 [Compound 679] | 34 | 42 | 2.6 | 75.9 | 196 | > 10 | No (efflux ratios being significant when greater than or equal to 3 when the Papp (B→A) was greater than or equal to 1×10^−6 cm/s) | – | – | –
4 | CC(C)(C)OC(=O)NCc1cccc(CC(=O)Nc2nnc(CCCCc3ccc(NC(=O)Cc4ccccc4)nn3)s2)c1 [Compound 339] | 73 | 80 | – | 23.9 | 416 | > 10 | Yes (efflux ratios being significant when greater than or equal to 3 when the Papp (B→A) was greater than or equal to 1×10^−6 cm/s) | – | – | –
5 | O=C(Cc1ccccc1)Nc1nnc(CCCCc2nnc(NC(=O)C(O)c3cccc(Cl)c3)s2)s1 (stereo not shown) [Compound 527] | – | – | – | – | – | – | – | 0.13 | 0.024 | –
6 | CC(C(=O)Nc1nnc(CCCCc2ccc(NC(=O)Cc3ccccc3)nn2)s1)c1ccccc1 (stereo not shown) [Compound 616] | 65 | 76 | 6 | 82.3 | 495 | > 10 | Yes (efflux ratios being significant when greater than or equal to 3 when the Papp (B→A) was greater than or equal to 1×10^−6 cm/s) | – | – | –
7 | CC(C(=O)Nc1ccc(CCCCc2nnc(NC(=O)Cc3cccc(CNC(=O)OC(C)(C)C)c3)s2)nn1)c1ccccc1 (stereo not shown) [Compound 436] | 44 | 57 | 6.6 | 37.5 | 247 | > 10 | Yes (efflux ratios being significant when greater than or equal to 3 when the Papp (B→A) was greater than or equal to 1×10^−6 cm/s) | – | – | –
8 | O=C(Cc1cccc(Br)c1)Nc1nnc(CCSCCc2nnc(NC(=O)Cc3cccc(Br)c3)s2)s1 [Compound 270] | – | – | – | – | – | – | – | 7.4 | > 5 | –
9 | CC(C)(C)OC(=O)N1CCN(Cc2cccc(CC(=O)Nc3nnc(CCSCc4nnc(NC(=O)Cc5cccc(CN6CCN(C(=O)OC(C)(C)C)CC6)c5)s4)s3)c2)CC1 [Compound 275] | – | – | – | – | – | – | – | 2.2 | 0.15 | –
10 | O=C(Cc1ccccc1)Nc1ccc(CCCCc2nnc(NC(=O)Cc3ccccn3)s2)nn1 [Compound 354] | 117 | 101 | – | 13.8 | 450 | > 10 | Yes (efflux ratios being significant when greater than or equal to 3 when the Papp (B→A) was greater than or equal to 1×10^−6 cm/s) | – | – | –
11 | O=C(Cc1cccc(OC(F)(F)F)c1)Nc1ccc(CCCCc2nnc(NC(=O)[C@H](O)c3ccccc3)s2)nn1 [Compound 705] | 60 | 67 | 6 | 85.2 | 510 | > 10 | Yes (efflux ratios being significant when greater than or equal to 3 when the Papp (B→A) was greater than or equal to 1×10^−6 cm/s) | – | – | –
12 | O=C(Cc1cccc(OC(F)(F)F)c1)Nc1ccc(CCCCc2nnc(NC(=O)Cc3cccc(OC(F)(F)F)c3)s2)nn1 [Compound 660] | 56 | 68 | 3.9 | 6.1 | 23.7 | < 10 | Yes (efflux ratios being significant when greater than or equal to 3 when the Papp (B→A) was greater than or equal to 1×10^−6 cm/s) | – | – | –
13 | O=C(Cc1ccccc1)Nc1ccc(CCCCc2nnc(NC(=O)CC3=CN4CCCN=C4S3)s2)nn1 [Compound 511] | – | – | – | – | – | – | – | – | – | 0.58
14 | O=C(Nc1nnc(CCCCc2nnc(NC(=O)[C@@H](O)c3ccccc3)s2)s1)[C@@H](O)c1ccccc1 [Compound 92] | – | – | – | – | – | – | – | 0.38 | 0.14 | –
15 | Nc1ccc(CCCCc2nnc(NC(=O)C(O)c3cccc(Cl)c3)s2)nn1 (stereo not shown) [Compound 411] | – | – | – | – | – | – | – | – | – | 0.22
16 | Cc1ccccc1CC(=O)Nc1nnc(CCCCc2ccc(NC(=O)Cc3ccccc3F)nn2)s1 [Compound 536] | – | – | – | – | – | – | – | – | – | 0.006
17 | O=C(Cc1ccccc1)Nc1ccc(CCCCc2nnc(NC(=O)C(O)c3ccc(-c4ccccc4)cc3OCCO)s2)nn1 (stereo not shown) [Compound 504] | – | – | – | – | – | – | – | – | – | 0.007
18 | O=C(Nc1nnc(CCCCc2nnc(NC(=O)C(O)c3cccc(Br)c3)s2)s1)C(O)c1cccc(Br)c1 (stereo not shown) [Compound 288] | – | – | – | – | – | – | – | 0.67 | 0.04 | –
19 | O=C(Cc1ccccc1)Nc1ccc(CCCCc2nnc(NC(=O)C(O)c3cccc(Cl)c3)s2)nn1 (stereo not shown) [Compound 318] | 73 | 82 | 18 | 24.5 | 445 | > 10 | Yes (efflux ratios being significant when greater than or equal to 3 when the Papp (B→A) was greater than or equal to 1×10^−6 cm/s) | – | – | –
20 | CC(C)(C)OC(=O)NCc1cc(CC(=O)Nc2nnc(CCCCc3ccc(NC(=O)Cc4ccccc4)nn3)s2)ccc1F [Compound 492] | – | – | – | – | – | – | – | – | – | 0.006
21 | CC(C)Cc1ccc(C(C)C(=O)Nc2nnc(CCCCc3ccc(NC(=O)Cc4ccccc4)nn3)s2)cc1 (stereo not shown) [Compound 557] | – | – | – | – | – | – | – | – | – | 0.025
